Experimental findings from patent publication US20250024846A1, “DEVELOPMENT OF FOOD-GRADE FUNGAL FERMENTATES WITH ANTIMICROBIAL ACTIVITY AND THE USE THEREOF” (Wisconsin Alumni Research Foundation, priority 2021, published 2025) are described below.

This experiment has as its system Staphylococcus aureus. The experiment is described as follows: Agar diffusion disc test (zone of inhibition). In kind it is cell-based. The conditions noted are these: positive control, 100 μg/mL (FIG. 2b). The method, then: Extraction of fermentates. Screening of the antimicrobial activity of NP extracts produced via liquid-liquid extraction with various organic solvents was performed. The tested organic solvents (i.e., ethyl acetate, chloroform, diethyl ether, dichloromethane, tetrahydrofuran, toluene, EMW (mixture of ethyl acetate:methanol:water), CEF (mixture of chloroform:ethyl acetate:formic acid), and BEA (mixture of benzene:ethanol:ammonia hydroxide)) are described in Table 2. 20 mL of NP1 or NP2 was reacted with 20 mL of an organic solvent in 50 mL conical tubes and incubated overnight at 25±2° C. with shaking at 150 rpm. The mixtures were centrifuged at 5000 g and the organic layer was transferred to a new 50 mL conical tube. The extracts were evaporated until dry under gentle airflow. Then, the extracts were reconstituted in 1 mL of methanol and filtered with a sterile 0.45 μm filtration unit. The methanol solution was tested for antimicrobial activity.
For orientation: In agar diffusion tests the substance spreads into inoculated agar from a disc or well.

As a reminder, the zone of inhibition is the extent of the growth-free halo in a diffusion test. A high value points to a stronger effect on the plate. Molecule `CC1(C)S[C@@H]2[C@H](NC(=O)[C@H](N)c3ccccc3)C(=O)N2[C@H]1C(=O)O` [ampicillin] yielded a zone of inhibition at 100 µg/mL of about 30 mm.
